Series [1] in a line: Equilibrium dialysis plasma protein binding in a multi-well container. Type of series: in vitro ADME. As to conditions: human plasma vs buffer, 37° C. with gentle shaking, LC/MS detection. The protocol: This example illustrates equilibrium dialysis assays that were performed in a multi-well container of the invention to measure small molecule drug binding to plasma proteins. The assays included filling one well of a pair of wells that communicated via a chamber having a membrane disposed therein with human plasma and the other well of the pair with buffer. The assay included filling multiple pairs of wells in this manner. Each of the small molecules was dispensed into different wells containing plasma. The entire multi-well container was then heated at 37° C. with gentle shaking. […] Binding percentages were determined following detection using liquid chromatography/mass spectrometry.

The conditions of series [2]: literature value; cited from earlier work.

The values that follow come from US20050112033A1, “Multi-well containers, systems, and methods of using the same” (IRM, LLC, priority 2003, published 2005).

As to `CN(C)CCCN1c2ccccc2CCc2ccccc21` [Imipramine], the “Human plasma binding percentage obtained in a multi-well container of the invention” value (from here on “Human plasma binding percentage obtained”) in series [1] is reported as 95%. Also, in series [2], the “Plasma binding percentage stated in the literature” value (shortened to “Plasma binding percentage stated”) is reported as 95%. Consider `Cc1c(O)cccc1C(=O)N[C@@H](CSc1ccccc1)[C@H](O)CN1C[C@H]2CCCC[C@H]2C[C@H]1C(=O)NC(C)(C)C` [Nelfinavir], for which, in series [1], the “Human plasma binding percentage obtained” value is on record as greater than 99%. Further, the “Plasma binding percentage stated” value in series [2] is greater than 98%. As for `CC(C)NCC(O)COc1cccc2ccccc12` (stereo not shown) [Propranolol], in series [1], the “Human plasma binding percentage obtained” value came to 91%. For the same compound, the “Plasma binding percentage stated” value in series [2] is 93%.

In the case of `Cn1c(=O)c2[nH]cnc2n(C)c1=O` [Theophylline], in series [2], the “Plasma binding percentage stated” value is 56%. `CCCCNC(=O)NS(=O)(=O)c1ccc(C)cc1` [Tolbutamide]: in series [2], the “Plasma binding percentage stated” value was 96%.

For the compound `COc1cc(Cc2cnc(N)nc2N)cc(OC)c1OC` [Trimethoprim], the “Human plasma binding percentage obtained” value in series [1] is recorded as 65%. Further, the “Plasma binding percentage stated” value in series [2] is 44%.
